Laboratory results published in US20150105252A1, “SUBSTITUTED PYRAZOLES AS HERBICIDES” (E I DU PONT DE NEMOURS AND COMPANY, priority 2013, published 2015).

Tests used:
barnyardgrass [1] = assay: Test C flooded paddy test; format: in vivo, Echinochloa crus-galli; settings: Flood
Outline: (§1)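 In-water treatment: compound dosed into 3 cm flood over soil, water level unchanged throughout. Controls run alongside; visual assessment at day 13–15.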

velvetleaf [2] = assay: Test A postemergence; format: in vivo, Abutilon theophrasti
Outline: (§2)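 Both timings tested concurrently in loam/sand soil: preemergence by directed soil spray, postemergence on plants of 2–10 cm at the one- to two-leaf stage. Greenhouse holding period was approximately 10 days before visual injury assessment (0–100, 0 = no effect).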

corn [3] = assay: Test A preemergence; format: in vivo, Zea mays; settings: 0 to 100 scale
Outline: as §2

pigweed [4] = assay: Test A preemergence; format: in vivo, Amaranthus retroflexus; settings: 0 to 100 scale
Outline: as §2

barnyardgrass [5] = assay: Test A preemergence; format: in vivo, Echinochloa crus-galli; settings: 0 to 100 scale
Outline: as §2

wheat [6] = assay: Test A postemergence; format: in vivo, Triticum aestivum
Outline: as §2

velvetleaf [7] = assay: Test A preemergence; format: in vivo, Abutilon theophrasti; settings: 0 to 100 scale
Outline: as §2

morningglory [8] = assay: Test A postemergence; format: in vivo, Ipomoea spp.
Outline: as §2

pigweed [9] = assay: Test A postemergence; format: in vivo, Amaranthus retroflexus
Outline: as §2

morningglory [10] = assay: Test A preemergence; format: in vivo, Ipomoea spp.; settings: 0 to 100 scale
Outline: as §2

wheat [11] = assay: Test A preemergence; format: in vivo, Triticum aestivum; settings: preemergence
Outline: as §2

ducksalad = assay: Test C flooded paddy test; format: in vivo, Heteranthera limosa; settings: Flood
Outline: as §1

foxtail, giant [12] = assay: Test A postemergence; format: in vivo, Setaria faberii
Outline: as §2

rice = assay: Test C flooded paddy test; format: in vivo, Oryza sativa; settings: Flood
Outline: as §1

sedge, umbrella = assay: Test C flooded paddy test; format: in vivo, Cyperus difformis; settings: Flood
Outline: as §1

crabgrass, large [13] = assay: Test A preemergence; format: in vivo, Digitaria sanguinalis; settings: 0 to 100 scale
Outline: as §2

foxtail, giant [14] = assay: Test A preemergence; format: in vivo, Setaria faberii; settings: 0 to 100 scale
Outline: as §2

crabgrass, large [15] = assay: Test A postemergence; format: in vivo, Digitaria sanguinalis
Outline: as §2

barnyardgrass [16] = assay: Test A postemergence; format: in vivo, Echinochloa crus-galli; settings: Postemergence
Outline: as §2

corn [17] = assay: Test A postemergence; format: in vivo, Zea mays
Outline: as §2

[18] = 62 g ai/ha, scale 0 to 100 (0 no effect, 100 complete control)
[19] = Postemergence, 500 g ai/ha, visual rating after approx. 10 days, 0 to 100 scale (0 no effect, 100 complete control)
[20] = postemergence, 125 g ai/ha, about 10 days, visual rating on 0 to 100 scale (0 no effect, 100 complete control)
[21] = Preemergence, 500 g ai/ha, 0 no effect, 100 complete control
[22] = preemergence, 125 g ai/ha, visual injury, approx. 10 days
[23] = 125 g ai/ha, visual injury, 0 to 100 scale, approx. 10 days
[24] = 500 g ai/ha, visual injury after approx. 10 days, 0 to 100 scale (0 no effect, 100 complete control)
[25] = 125 g ai/ha, 0 to 100 scale, 0 no effect, 100 complete control
[26] = 500 g ai/ha, visual rating after approx. 10 days, 0 to 100 scale (0 no effect, 100 complete control)
[27] = 31 g ai/ha, scale 0 to 100 (0 no effect, 100 complete control)

CCc1cc(C(=O)NOC(C)(C)CC)nn1Cc1cccc(OC(F)(F)F)c1 [Compound 71]
Plant response rating, Barnyardgrass (barnyardgrass [1]; [18]): 0
Plant response rating, Barnyardgrass (barnyardgrass [1]; 125 g ai/ha, scale 0 to 100): 20
Plant response rating, Barnyardgrass (barnyardgrass [1]; 250 g ai/ha, scale 0 to 100): 40
Velvetleaf plant response rating (velvetleaf [2]; [19]): 100
Velvetleaf plant response rating (velvetleaf [2]; [20]): 50
Corn plant response rating (corn [3]; [21]): 10
Corn plant response rating (corn [3]; [22]): 0
Pigweed plant response rating (pigweed [4]; [21]): 100
Pigweed plant response rating (pigweed [4]; [22]): 80
Barnyardgrass plant response rating (barnyardgrass [5]; [21]): 80
Barnyardgrass plant response rating (barnyardgrass [5]; [22]): 60
Wheat plant response rating (wheat [6]; [19]): 50
Wheat plant response rating (wheat [6]; [20]): 30
Velvetleaf plant response rating (velvetleaf [7]; [21]): 40
Velvetleaf plant response rating (velvetleaf [7]; [22]): 30
Morningglory plant response rating (morningglory [8]; [19]): 40
Morningglory plant response rating (morningglory [8]; [20]): 40
Pigweed plant response rating (pigweed [9]; [19]): 80
Pigweed plant response rating (pigweed [9]; [20]): 40
Morningglory plant response rating (morningglory [10]; [21]): 50
Morningglory plant response rating (morningglory [10]; [22]): 20
Wheat plant response rating (wheat [11]; [23]): 0
Wheat plant response rating (wheat [11]; [24]): 70
Plant response rating, Ducksalad (ducksalad; [18]): 0
Plant response rating, Ducksalad (ducksalad; 125 g ai/ha, scale 0 to 100): 0
Plant response rating, Ducksalad (ducksalad; 250 g ai/ha, scale 0 to 100): 0
Foxtail, Giant plant response rating (foxtail, giant [12]; [19]): 70
Foxtail, Giant plant response rating (foxtail, giant [12]; [20]): 40
Plant response rating, Rice (rice; [18]): 0
Plant response rating, Rice (rice; 125 g ai/ha, scale 0 to 100): 30
Plant response rating, Rice (rice; 250 g ai/ha, scale 0 to 100): 45
Plant response rating, Sedge, Umbrella (sedge, umbrella; [18]): 70
Plant response rating, Sedge, Umbrella (sedge, umbrella; 125 g ai/ha, scale 0 to 100): 75
Plant response rating, Sedge, Umbrella (sedge, umbrella; 250 g ai/ha, scale 0 to 100): 85
Crabgrass, Large plant response rating (crabgrass, large [13]; [21]): 100
Crabgrass, Large plant response rating (crabgrass, large [13]; [22]): 90
Foxtail, Giant plant response rating (foxtail, giant [14]; [21]): 100
Foxtail, Giant plant response rating (foxtail, giant [14]; [22]): 80
Crabgrass, Large plant response rating (crabgrass, large [15]; [19]): 80
Crabgrass, Large plant response rating (crabgrass, large [15]; [20]): 40
Barnyardgrass plant response rating (barnyardgrass [16]; [25]): 30
Barnyardgrass plant response rating (barnyardgrass [16]; [26]): 70
Corn plant response rating (corn [17]; [19]): 50
Corn plant response rating (corn [17]; [20]): 30

CCONC(=O)c1cc(C)n(Cc2cccc(OC(F)(F)F)c2)n1 [Compound 73]
Plant response rating, Barnyardgrass (barnyardgrass [1]; [27]): 0
Plant response rating, Barnyardgrass (barnyardgrass [1]; [18]): 0
Plant response rating, Barnyardgrass (barnyardgrass [1]; 125 g ai/ha, scale 0 to 100): 0
Plant response rating, Barnyardgrass (barnyardgrass [1]; 250 g ai/ha, scale 0 to 100): 0
Velvetleaf plant response rating (velvetleaf [2]; [19]): 80
Velvetleaf plant response rating (velvetleaf [2]; [20]): 30
Corn plant response rating (corn [3]; [21]): 50
Corn plant response rating (corn [3]; [22]): 30
Pigweed plant response rating (pigweed [4]; [21]): 100
Pigweed plant response rating (pigweed [4]; [22]): 90
Barnyardgrass plant response rating (barnyardgrass [5]; [21]): 60
Barnyardgrass plant response rating (barnyardgrass [5]; [22]): 50
Wheat plant response rating (wheat [6]; [19]): 40
Wheat plant response rating (wheat [6]; [20]): 0
Velvetleaf plant response rating (velvetleaf [7]; [21]): 60
Velvetleaf plant response rating (velvetleaf [7]; [22]): 10
Morningglory plant response rating (morningglory [8]; [19]): 40
Morningglory plant response rating (morningglory [8]; [20]): 30
Pigweed plant response rating (pigweed [9]; [19]): 90
Pigweed plant response rating (pigweed [9]; [20]): 70
Morningglory plant response rating (morningglory [10]; [21]): 30
Morningglory plant response rating (morningglory [10]; [22]): 10
Wheat plant response rating (wheat [11]; [23]): 0
Wheat plant response rating (wheat [11]; [24]): 80
Plant response rating, Ducksalad (ducksalad; [27]): 0
Plant response rating, Ducksalad (ducksalad; [18]): 20
Plant response rating, Ducksalad (ducksalad; 125 g ai/ha, scale 0 to 100): 45
Plant response rating, Ducksalad (ducksalad; 250 g ai/ha, scale 0 to 100): 55
Foxtail, Giant plant response rating (foxtail, giant [12]; [19]): 70
Foxtail, Giant plant response rating (foxtail, giant [12]; [20]): 40
Plant response rating, Rice (rice; [27]): 0
Plant response rating, Rice (rice; [18]): 0
Plant response rating, Rice (rice; 125 g ai/ha, scale 0 to 100): 0
Plant response rating, Rice (rice; 250 g ai/ha, scale 0 to 100): 0
Plant response rating, Sedge, Umbrella (sedge, umbrella; [27]): 0
Plant response rating, Sedge, Umbrella (sedge, umbrella; [18]): 0
Plant response rating, Sedge, Umbrella (sedge, umbrella; 125 g ai/ha, scale 0 to 100): 0
Plant response rating, Sedge, Umbrella (sedge, umbrella; 250 g ai/ha, scale 0 to 100): 30
Crabgrass, Large plant response rating (crabgrass, large [13]; [21]): 50
Crabgrass, Large plant response rating (crabgrass, large [13]; [22]): 30
Foxtail, Giant plant response rating (foxtail, giant [14]; [21]): 60
Foxtail, Giant plant response rating (foxtail, giant [14]; [22]): 30
Crabgrass, Large plant response rating (crabgrass, large [15]; [19]): 60
Crabgrass, Large plant response rating (crabgrass, large [15]; [20]): 40
Barnyardgrass plant response rating (barnyardgrass [16]; [25]): 40
Barnyardgrass plant response rating (barnyardgrass [16]; [26]): 70
Corn plant response rating (corn [17]; [19]): 80
Corn plant response rating (corn [17]; [20]): 40
